Test results: US20240197588A1, “ANTIMICROBIAL COMPOSITION” (Conopco, Inc., d/b/a UNILEVER, priority 2021, published 2024)

Columns and labels:
[1] = Physical state of detackifying agent at room temperature; assay type: physicochemical
Text: RT in Table 4 refers to room temperature.

[2] = Water solubility in oil (solvency of detackifying agent for water); settings: neat detackifying agent
Text: (§1) Detackifying agents desirable for use in the antimicrobial composition disclosed herein must meet the following criteria: the detackifying agent must be liquid, the detackifying agent must be soluble in at least a 75/25 or higher ratio of ethanol to water (EtOH/Water), which is to be reflective of solubility in the final composition resulting in a clear (i.e., transparent) final antimicrobial composition, and the detackifying agent must have no solvency for water.
Finally, the preferred detackifying agent must itself not have solvency for water such that during application and on drying as the ethanol and water evaporate, the water is also allowed to quickly evaporate leaving behind only the oil and any skin benefit actives/moisturizers if present.

[3] = Solubility of oil (detackifying agent) in 75/25 EtOH/Water; settings: neat detackifying agent
Text: as §1

Compound: CC(C)OC(=O)CCCCCCCCC(=O)OC(C)C [Diisopropyl sebacate]
- Oil (liquid or solid at RT) [1]: Liquid

Compound: CCCCCCCCCCCCOC(=O)C(C)O (stereo not shown) [Lauryl lactate]
- Water solubility in detackifying agent [2]: No
- Solubility in 75/25 EtOH/Water [3]: >30%
- Oil (liquid or solid at RT) [1]: Liquid

Compound: CC(C)OC(=O)CCCCC(=O)OC(C)C [Disopropyl adipate]
- Water solubility in detackifying agent [2]: No
- Solubility in 75/25 EtOH/Water [3]: >30%
- Oil (liquid or solid at RT) [1]: Liquid

Compound: CC(C)CCCCCCCCCCCCCCCO [Isostearyl alcohol]
- Oil (liquid or solid at RT) [1]: Liquid

Compound: CCCCC(CC)COC(=O)CCCCC(=O)OCC(CC)CCCC (stereo not shown) [Diethylhexyl adipate]
- Water solubility in detackifying agent [2]: No
- Solubility in 75/25 EtOH/Water [3]: <10%
- Oil (liquid or solid at RT) [1]: Liquid

Compound: CCCCC(CC)COC(=O)CC(O)C(=O)OCC(CC)CCCC (stereo not shown) [Diethyl hexyl malate]
- Oil (liquid or solid at RT) [1]: Liquid

Compound: Dicapryl maleate
- Water solubility in detackifying agent [2]: No
- Solubility in 75/25 EtOH/Water [3]: <10%
- Oil (liquid or solid at RT) [1]: Liquid

Compound: PPG15 Stearyl ether
- Water solubility in detackifying agent [2]: No
- Solubility in 75/25 EtOH/Water [3]: >30%
- Oil (liquid or solid at RT) [1]: Liquid

Compound: CCCCC(CC)COC(=O)CCCCCCCCC(=O)OCC(CC)CCCC (stereo not shown) [Diethyl hexyl sebacate]
- Oil (liquid or solid at RT) [1]: Liquid
